Experimental data taken from ChEMBL document CHEMBL6096707, “UBE2N: Hope on the Cancer Front, How to Inhibit This Promising Target Prospect?” (J Med Chem, 2025).

Legend:
[1] = biological target: T1, Ubiquitin-conjugating enzyme E2 N (Homo sapiens, UniProt P61088); assay: Inhibition of UBE2N (unknown origin)
T1 sequence (P61088 whole entry): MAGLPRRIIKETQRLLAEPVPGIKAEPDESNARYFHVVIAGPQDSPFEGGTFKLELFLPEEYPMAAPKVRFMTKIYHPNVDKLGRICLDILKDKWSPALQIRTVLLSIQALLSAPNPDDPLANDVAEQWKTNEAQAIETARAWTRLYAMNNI

[2] = biological target: T1, Ubiquitin-conjugating enzyme E2 N; assay: Inhibition of UBE2N (unknown origin) by TR-FRET analysis
[3] = Inhibition of HDM2/p53 (unknown origin) protein-protein interaction; design: species or system Homo sapiens

COC(=O)c1cc2c(cn1)[nH]c1ccc(O)cc12
IC50 [1]: 16 µM

O=C(NCC1CCN(Cc2cccc(Cl)c2)CC1)[C@@H]1CCCN(c2ncnc3c2nc2n3CCCC2)C1
IC50 [2]: 0.781 µM

C=C1CC(C)(C)[C@@H](/C=C\[C@@H](C)[C@H]2CC[C@H]3[C@@H]4C[C@H](OS(=O)(=O)O)[C@H]5C[C@@H](O)CC[C@]5(C)[C@H]4CC[C@]23C)[C@H]1CC(O)[C@@H](C)[C@H]1CC[C@H]2[C@@H]3C[C@H](OS(=O)(=O)O)[C@H]4C[C@H](OS(=O)(=O)O)[C@@H](OS(=O)(=O)O)C[C@]4(C)[C@H]3CC[C@]12C (stereo partly specified)
IC50 [1]: 0.13 µM

C[C@@H](N)[C@@H](O)C/C=C\C/C=C\C/C=C\C/C=C\C/C=C\C/C=C\CCCCCC[C@H](O)[C@@H](C)N [LEUCETTAMOL A]
IC50 [3]: 150 µM

CC1=CC(C)(C)[C@@H](/C=C\[C@@H](C)[C@H]2CC[C@H]3[C@@H]4C[C@H](OS(=O)(=O)O)[C@H]5C[C@H](O)[C@@H](OS(=O)(=O)O)C[C@]5(C)[C@H]4CC[C@]23C)[C@H]1CC[C@@H](C)[C@H]1CC[C@H]2[C@@H]3C[C@H](OS(=O)(=O)O)[C@H]4C[C@H](OS(=O)(=O)O)[C@@H](OS(=O)(=O)O)C[C@]4(C)[C@H]3CC[C@]12C [MANADOSTEROL A]
IC50 [1]: 0.09 µM
IC50 [3]: 160 µM
